Data on 6 compounds can be found in patent EP0623592B1, “Peptide analogs as irreversible interleukin-1beta protease inhibitors” (VERTEX PHARMACEUTICALS INCORPORATED, priority 1993, dated 1994).

The experiment has as its target T1, IL-1β protease (Homo sapiens, UniProt P29466).
T1 construct: Partially purified IL-1β protease is stored at -80°C
T1 sequence (P29466 120-297 limits assumed): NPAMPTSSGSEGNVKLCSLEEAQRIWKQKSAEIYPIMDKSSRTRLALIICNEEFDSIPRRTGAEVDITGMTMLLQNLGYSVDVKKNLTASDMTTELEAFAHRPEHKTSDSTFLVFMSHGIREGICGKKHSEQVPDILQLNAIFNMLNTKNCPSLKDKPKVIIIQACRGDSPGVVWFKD
T1 sequence (P29466 317-404 limits assumed): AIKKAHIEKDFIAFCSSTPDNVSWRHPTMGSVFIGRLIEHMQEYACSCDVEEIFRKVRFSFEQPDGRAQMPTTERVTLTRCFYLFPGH
As to the kind of experiment: IL-1β protease inhibition assay (HPLC readout of TRITC-AYVHDAPVRS-NH2 substrate cleavage). The format is biochemical. As to conditions: partially purified IL-1β protease; 15 minutes preincubation with inhibitor at 37°C; substrate 67 µM; 60 minutes at 37°C. The method, then: Compounds of the present invention were tested for IL-1β protease inhibition activity according to the following protocol: Partially purified IL-1β protease is stored at -80°C, thawed on ice, and preincubated for 10 minutes at 37°C with 2.5 mM dithiothreitol in a buffer solution containing 10 mM Tris-HCI (pH 8.0) and 25% (v/w) glycerol. Inhibitors are prepared as stock solutions in dimethyl sulfoxide (DMSO). The protease is preincubated with inhibitor in a volume of 20 µl in a 1.5 ml polypropylene microcentrifuge tube for 15 minutes at 37°C. The volume of compound added to the assay is adjusted to yield a DMSO concentration in the preincubation of <15% (v/v). The enzyme assay is then initiated by the addition of substrate (TRITC-AYVHDAPVRS-NH2) to yield a final concentration of 67 µM in a final volume of 30 µl. The reactions are carried out for 60 minutes at 37°C in the dark and are terminated by the addition of 10 µl of 10% trifluoroacetic acid (TFA). Following the addition of 115 µl of 0.1% TFA, the samples are analyzed by high pressure liquid chromatography using a reverse phase (C18) column and elution with an acetonitrile/water/TFA gradient. Substrate and product are monitored by their absorbance at 550 nm and elute at 4.2 and 5.2 minutes, respectively.
On to `O=C(O)C[C@H](NC(=O)OCc1ccccc1)C(=O)COC(=O)c1c(Cl)cccc1Cl` [Example 38, N-Benzyloxycarbonyl-L-Aspartic Acid 2,6-Dichlorobenzoyloxymethyl Ketone], for which inhibition was half-maximal at 50 nM (IC50).
In the case of `O=C(O)C[C@H](NC(=O)OCc1ccccc1)C(=O)COC(=O)c1c(C(F)(F)F)cccc1C(F)(F)F` [Example 40, N-Benzyloxycarbonyl-L-aspartic acid 2,6-ditrifluoromethyl benzoyloxymethyl ketone], the IC50 is 100 nM.
`O=C(O)C[C@H](NC(=O)OCc1ccccc1)C(=O)COc1c(Cl)cccc1Cl` [Example 41, N-Benzyloxycarbonyl-L-aspartic acid 2,6-dichlorophenoxymethylketone] showed an IC50 of 100 nM.
For the compound `COC(=O)N[C@@H](C)C(=O)N[C@@H](CC(=O)O)C(=O)COC(=O)c1c(Cl)cccc1Cl` [Example 54, N-Methoxycarbonyl-L-alanine-L-aspartic acid 2,6-dichlorobenzoyloxymethyl ketone], the IC50 came to 60 nM.
The compound `COC(=O)N[C@@H](Cc1ccccc1)C(=O)N[C@@H](CC(=O)O)C(=O)COC(=O)c1c(Cl)cccc1Cl` [Example 57, N-Methoxycarbonyl-L-phenylalanine-L-aspartic acid 2,6-dichlorobenzoyloxymethyl ketone] had an IC50 of 70 nM.
With `COC(=O)N[C@@H](CC(=O)O)C(=O)COC(=O)c1c(Cl)cccc1Cl` [Example 67, N-Methoxycarbonyl-L-aspartic acid 2,6-dichlorobenzoyloxymethyl ketone] the figure was 80 nM.

In general, IC50 refers to the concentration that inhibits the measured activity by half.
